Reference: patent US3947456A, “Substituted 4-phenyl isoquinolines” (Hoffman-La Roche Inc., priority 1970, dated 1976)
Read-outs that look alike come from different tables or passages of the source.

How the values were obtained:
rats = assay: Anti-depressant activity: antagonism of symptoms induced by 2-ethyl-2-hydroxy-3-isobutyl-9,10-dimethoxy-1,3,4,6,7,11b-hexahydro-2H-benzo (a) quinolizine hydrochloride (motility, sensitivity to stimulus, seeking behavior, suppression of ptosis); assay type: in vivo; conditions: 3 doses of 50 mg/kg p.o., benzoquinolizine 20 mg/kg s.c. 6 h after last dose, amitriptyline = 100 percent
Method: The compounds of formula I above and their pharmaceutically acceptable salts are extremely effective and active as anti-depressant agents. Their useful anti-depressant activity is shown in warm-blooded animals utilizing standard test procedures. […] Six hours after the last administration the animals received 20 mg/kg of 2-ethyl-2-hydroxy-3-isobutyl-9,10-dimethoxy-1,3,4,6,7,11b-hexahydro-2H-benzo (a) quinolizine hydrochloride injected subcutaneously. The same dosage was administered to a group of 5-non-pretreated rats. The evaluation includes central and peripheral symptoms such as are characteristic for anti-depressants (See Annals of the New York Academy of Science, Vol. 96, page 279, 1962). Especially observed were the motility (climbing), sensitivity to stimulus, seeking behavior as well as the suppression of ptosis. These changes were expressed in numbers according to an evaluation scheme.
The percentage numbers stated relate to the value obtained with amitriptyline (amitriptyline = 100 percent).

[1] = Acute toxicity (LD50), 24 hour values; conditions: mouse, in vivo, mice, 24 hour value
Method: The low toxicity of the compounds of formula I is also illustrated by the acute toxicity (LD50) of the compounds set out in Table I. The figures set forth in Table I as to acute toxicity refer to toxicity tests performed in mice and are the 24 hour values.

CN1Cc2cc(O)ccc2C(c2ccc(Cl)cc2)C1 (stereo not drawn) [4-(4-chlorophenyl)-1,2,3,4-tetrahydro-2-methyl-7-isoquinolinol]
Activity in % of the activity of amitriptyline (rats): about 114%
LD50 at 24 h ([1]; iv, i.v., read-out: LD50 i.v.): 30 to 60 mg/kg
LD50 at 24 h ([1]; po, p.o., read-out: LD50 p.o.): 1000 to 2000 mg/kg
LD50 at 24 h ([1]; sc, s.c., read-out: LD50 s.c.): 500 to 1000 mg/kg

CN1Cc2cc(O)ccc2C(c2ccc(Cl)c(Cl)c2)C1 (stereo not drawn) [4-(3,4-dichlorophenyl)-1,2,3,4-tetrahydro-2-methyl-7-isoquinolinol]
Activity in % of the activity of amitriptyline (rats): about 158%
LD50 at 24 h ([1]; iv, i.v., read-out: LD50 i.v.): 30 to 60 mg/kg
LD50 at 24 h ([1]; po, p.o., read-out: LD50 p.o.): 500 to 1000 mg/kg
LD50 at 24 h ([1]; sc, s.c., read-out: LD50 s.c.): 250 to 500 mg/kg

COc1ccc2c(c1)CN(C)CC2c1ccc(Cl)c(Cl)c1 (stereo not drawn) [4-(3,4-dichlorophenyl)-1,2,3,4-tetrahydro-7-methoxy-2-methylisoquinoline]
Activity in % of the activity of amitriptyline (rats): about 128%
LD50 at 24 h ([1]; iv, i.v., read-out: LD50 i.v.): 125 to 250 mg/kg
LD50 at 24 h ([1]; po, p.o., read-out: LD50 p.o.): 1000 to 2000 mg/kg
LD50 at 24 h ([1]; sc, s.c., read-out: LD50 s.c.): 500 to 1000 mg/kg
